# ChEMBL document CHEMBL1155172, “Distribution of radioactivity in bone and related structures following administration of [14C]dalbavancin to New Zealand white rabbits” (Antimicrob Agents Chemother, 2007)
# Tests used:
# [1] = Drug level in New Zealand white rabbit epiphyseal plate assessed as [14C]dalbavancin level per gram of tissue at 20 mg/kg, iv after 72 hrs by autoradioluminography; format: ADME, organism-based, Oryctolagus cuniculus; design: dose 20 mg/kg, route intravenous; conditions: in vivo
# Staphylococcus = experiment: Antibacterial activity against Staphylococcus; format: functional
# [2] = Drug level in New Zealand white rabbit bone marrow assessed as [14C]dalbavancin level per gram of tissue at 20 mg/kg, iv after 12 hrs by liquid scintillation counting method; format: ADME, organism-based, Oryctolagus cuniculus; design: dose 20 mg/kg, route intravenous; conditions: in vivo
# Blood [3] = experiment: Drug level in New Zealand white rabbit blood assessed as [14C]dalbavancin level per gram of tissue at 20 mg/kg, iv after 12 hrs by autoradioluminography; format: ADME, organism-based, Oryctolagus cuniculus; design: dose 20 mg/kg, route intravenous; conditions: in vivo
# [4] = Drug level in New Zealand white rabbit bone assessed as [14C]dalbavancin level per gram of tissue at 20 mg/kg, iv after 120 hrs by liquid scintillation counting method; format: ADME, organism-based, Oryctolagus cuniculus, Bone element; design: dose 20 mg/kg, route intravenous; conditions: in vivo
# Blood [5] = experiment: Drug level in New Zealand white rabbit blood assessed as [14C]dalbavancin level per gram of tissue at 20 mg/kg, iv after 24 hrs by autoradioluminography; format: ADME, organism-based, Oryctolagus cuniculus; design: dose 20 mg/kg, route intravenous; conditions: in vivo
# [6] = Drug level in New Zealand white rabbit bone marrow assessed as [14C]dalbavancin level per gram of tissue at 20 mg/kg, iv after 336 hrs by liquid scintillation counting method; format: ADME, organism-based, Oryctolagus cuniculus; design: dose 20 mg/kg, route intravenous; conditions: in vivo
# [7] = Drug level in New Zealand white rabbit periostium assessed as [14C]dalbavancin level per gram of tissue at 20 mg/kg, iv after 12 hrs by autoradioluminography; format: ADME, organism-based, Oryctolagus cuniculus, Periosteum; design: dose 20 mg/kg, route intravenous; conditions: in vivo
# [8] = Drug level in New Zealand white rabbit ligament assessed as [14C]dalbavancin level per gram of tissue at 20 mg/kg, iv after 336 hrs by autoradioluminography; format: ADME, organism-based, Oryctolagus cuniculus; design: dose 20 mg/kg, route intravenous; conditions: in vivo
# Oryctolagus cuniculus [9] = experiment: Plasma concentration in New Zealand white rabbit assessed as [14C]dalbavancin level per gram of tissue at 20 mg/kg, iv after 336 hrs by liquid scintillation counting method; format: ADME, organism-based; design: dose 20 mg/kg, route intravenous; conditions: in vivo
# [10] = Drug level in New Zealand white rabbit bone marrow assessed as [14C]dalbavancin level per gram of tissue at 20 mg/kg, iv after 24 hrs by liquid scintillation counting method; format: ADME, organism-based, Oryctolagus cuniculus; design: dose 20 mg/kg, route intravenous; conditions: in vivo
# Oryctolagus cuniculus [11] = experiment: Plasma concentration in New Zealand white rabbit assessed as [14C]dalbavancin level per gram of tissue at 20 mg/kg, iv after 120 hrs by liquid scintillation counting method; format: ADME, organism-based; design: dose 20 mg/kg, route intravenous; conditions: in vivo
# [12] = Drug level in New Zealand white rabbit synovial space assessed as [14C]dalbavancin level per gram of tissue at 20 mg/kg, iv after 168 hrs by autoradioluminography; format: ADME, organism-based, Oryctolagus cuniculus; design: dose 20 mg/kg, route intravenous; conditions: in vivo
# [13] = Drug level in New Zealand white rabbit ligament assessed as [14C]dalbavancin level per gram of tissue at 20 mg/kg, iv after 12 hrs by autoradioluminography; format: ADME, organism-based, Oryctolagus cuniculus; design: dose 20 mg/kg, route intravenous; conditions: in vivo
# Oryctolagus cuniculus [14] = experiment: Plasma concentration in New Zealand white rabbit assessed as [14C]dalbavancin level per gram of tissue at 20 mg/kg, iv after 24 hrs by liquid scintillation counting method; format: ADME, organism-based; design: dose 20 mg/kg, route intravenous; conditions: in vivo
# Oryctolagus cuniculus [15] = experiment: Plasma concentration in New Zealand white rabbit assessed as [14C]dalbavancin level per gram of tissue at 20 mg/kg, iv after 72 hrs by liquid scintillation counting method; format: ADME, organism-based; design: dose 20 mg/kg, route intravenous; conditions: in vivo
# [16] = Drug level in New Zealand white rabbit bone marrow assessed as [14C]dalbavancin level per gram of tissue at 20 mg/kg, iv after 120 hrs by autoradioluminography; format: ADME, organism-based, Oryctolagus cuniculus; design: dose 20 mg/kg, route intravenous; conditions: in vivo
# Blood [17] = experiment: Drug level in New Zealand white rabbit blood assessed as [14C]dalbavancin level per gram of tissue at 20 mg/kg, iv after 168 hrs by autoradioluminography; format: ADME, organism-based, Oryctolagus cuniculus; design: dose 20 mg/kg, route intravenous; conditions: in vivo
# Oryctolagus cuniculus [18] = experiment: Plasma concentration in New Zealand white rabbit assessed as [14C]dalbavancin level per gram of tissue at 20 mg/kg, iv after 168 hrs by liquid scintillation counting method; format: ADME, organism-based; design: dose 20 mg/kg, route intravenous; conditions: in vivo
# [19] = Drug level in New Zealand white rabbit compact bone assessed as [14C]dalbavancin level per gram of tissue at 20 mg/kg, iv after 168 hrs by autoradioluminography; format: ADME, organism-based, Oryctolagus cuniculus, Bone element; design: dose 20 mg/kg, route intravenous; conditions: in vivo
# [20] = Drug level in New Zealand white rabbit articular cartilage assessed as [14C]dalbavancin level per gram of tissue at 20 mg/kg, iv after 168 hrs by autoradioluminography; format: ADME, organism-based, Oryctolagus cuniculus; design: dose 20 mg/kg, route intravenous; conditions: in vivo
# [21] = Drug level in New Zealand white rabbit bone marrow assessed as [14C]dalbavancin level per gram of tissue at 20 mg/kg, iv after 12 hrs by autoradioluminography; format: ADME, organism-based, Oryctolagus cuniculus; design: dose 20 mg/kg, route intravenous; conditions: in vivo
# [22] = Drug level in New Zealand white rabbit synovial space assessed as [14C]dalbavancin level per gram of tissue at 20 mg/kg, iv after 24 hrs by autoradioluminography; format: ADME, organism-based, Oryctolagus cuniculus; design: dose 20 mg/kg, route intravenous; conditions: in vivo
# [23] = Drug level in New Zealand white rabbit skeletal muscle assessed as [14C]dalbavancin level per gram of tissue at 20 mg/kg, iv after 168 hrs by autoradioluminography; format: ADME, organism-based, Oryctolagus cuniculus; design: dose 20 mg/kg, route intravenous; conditions: in vivo
# [24] = Drug level in New Zealand white rabbit skeletal muscle assessed as [14C]dalbavancin level per gram of tissue at 20 mg/kg, iv after 336 hrs by autoradioluminography; format: ADME, organism-based, Oryctolagus cuniculus; design: dose 20 mg/kg, route intravenous; conditions: in vivo
# [25] = Drug level in New Zealand white rabbit bone marrow assessed as [14C]dalbavancin level per gram of tissue at 20 mg/kg, iv after 72 hrs by liquid scintillation counting method; format: ADME, organism-based, Oryctolagus cuniculus; design: dose 20 mg/kg, route intravenous; conditions: in vivo
# [26] = Drug level in New Zealand white rabbit bone assessed as [14C]dalbavancin level per gram of tissue at 20 mg/kg, iv after 168 hrs by liquid scintillation counting method; format: ADME, organism-based, Oryctolagus cuniculus, Bone element; design: dose 20 mg/kg, route intravenous; conditions: in vivo
# [27] = Drug level in New Zealand white rabbit periostium assessed as [14C]dalbavancin level per gram of tissue at 20 mg/kg, iv after 72 hrs by autoradioluminography; format: ADME, organism-based, Oryctolagus cuniculus, Periosteum; design: dose 20 mg/kg, route intravenous; conditions: in vivo
# [28] = Drug level in New Zealand white rabbit meniscus assessed as [14C]dalbavancin level per gram of tissue at 20 mg/kg, iv after 24 hrs by autoradioluminography; format: ADME, organism-based, Oryctolagus cuniculus; design: dose 20 mg/kg, route intravenous; conditions: in vivo
# [29] = Drug level in New Zealand white rabbit epiphyseal plate assessed as [14C]dalbavancin level per gram of tissue at 20 mg/kg, iv after 12 hrs by autoradioluminography; format: ADME, organism-based, Oryctolagus cuniculus; design: dose 20 mg/kg, route intravenous; conditions: in vivo
# [30] = Drug level in New Zealand white rabbit compact bone assessed as [14C]dalbavancin level per gram of tissue at 20 mg/kg, iv after 72 hrs by autoradioluminography; format: ADME, organism-based, Oryctolagus cuniculus, Bone element; design: dose 20 mg/kg, route intravenous; conditions: in vivo
# [31] = Drug level in New Zealand white rabbit articular cartilage assessed as [14C]dalbavancin level per gram of tissue at 20 mg/kg, iv after 12 hrs by autoradioluminography; format: ADME, organism-based, Oryctolagus cuniculus; design: dose 20 mg/kg, route intravenous; conditions: in vivo
# [32] = Drug level in New Zealand white rabbit ligament assessed as [14C]dalbavancin level per gram of tissue at 20 mg/kg, iv after 24 hrs by autoradioluminography; format: ADME, organism-based, Oryctolagus cuniculus; design: dose 20 mg/kg, route intravenous; conditions: in vivo
# [33] = Drug level in New Zealand white rabbit epiphyseal plate assessed as [14C]dalbavancin level per gram of tissue at 20 mg/kg, iv after 24 hrs by autoradioluminography; format: ADME, organism-based, Oryctolagus cuniculus; design: dose 20 mg/kg, route intravenous; conditions: in vivo
# [34] = Drug level in New Zealand white rabbit epiphyseal plate assessed as [14C]dalbavancin level per gram of tissue at 20 mg/kg, iv after 336 hrs by autoradioluminography; format: ADME, organism-based, Oryctolagus cuniculus; design: dose 20 mg/kg, route intravenous; conditions: in vivo
# [35] = Drug level in New Zealand white rabbit articular cartilage assessed as [14C]dalbavancin level per gram of tissue at 20 mg/kg, iv after 120 hrs by autoradioluminography; format: ADME, organism-based, Oryctolagus cuniculus; design: dose 20 mg/kg, route intravenous; conditions: in vivo
# [36] = Drug level in New Zealand white rabbit nucleus pulposus assessed as [14C]dalbavancin level per gram of tissue at 20 mg/kg, iv after 72 hrs by liquid scintillation counting method; format: ADME, organism-based, Oryctolagus cuniculus; design: dose 20 mg/kg, route intravenous; conditions: in vivo
# [37] = Drug level in New Zealand white rabbit epiphyseal plate assessed as [14C]dalbavancin level per gram of tissue at 20 mg/kg, iv after 168 hrs by autoradioluminography; format: ADME, organism-based, Oryctolagus cuniculus; design: dose 20 mg/kg, route intravenous; conditions: in vivo
compound,measurement,setting,value
CN[C@H]1C(=O)N[C@@H]2Cc3ccc(cc3)Oc3cc4cc(c3O[C@@H]3O[C@H](C(=O)O)[C@@H](O)[C@H](O)[C@H]3NC(=O)CCCCCCCCC(C)C)Oc3ccc(cc3Cl)[C@@H](O)[C@@H]3NC(=O)[C@H](NC(=O)[C@@H]4NC(=O)[C@@H](NC2=O)c2cc(cc(O)c2Cl)Oc2cc1ccc2O)c1ccc(O)c(c1)-c1c(O[C@H]2O[C@H](CO)[C@@H](O)[C@H](O)[C@@H]2O)cc(O)cc1[C@@H](C(=O)NCCCN(C)C)NC3=O [DALBAVANCIN],Drug uptake,[1],11.7 µg/g
same,MIC90,Staphylococcus,≤ 0.06 µg/mL
same,Drug uptake,[2],15.1 µg/g
same,Drug uptake,Blood [3],30.6 µg/g
same,Drug uptake,[4],3.46 µg/g
same,Drug uptake,Blood [5],14.49 µg
same,Drug uptake,[6],12 µg/g
same,Drug uptake,[7],20.9 µg/g
same,Drug uptake,[8],1.43 µg
same,Cp,Oryctolagus cuniculus [9],0.94 µg
same,Drug uptake,[10],14.8 µg/g
same,Cp,Oryctolagus cuniculus [11],2.78 µg
same,Drug uptake,[12],2.66 µg/g
same,Drug uptake,[13],22.1 µg/g
same,Cp,Oryctolagus cuniculus [14],19.3 µg/g
same,Cp,Oryctolagus cuniculus [15],4.5 µg
same,Drug uptake,[16],29.9 µg/g
same,Drug uptake,Blood [17],5.33 µg/g
same,Cp,Oryctolagus cuniculus [18],2.01 µg
same,Drug uptake,[19],0.34 µg/g
same,Drug uptake,[20],7.48 µg/g
same,Drug uptake,[21],40.2 µg/g
same,Drug uptake,[22],4.25 µg
same,Drug uptake,[23],0.94 µg/g
same,Drug uptake,[24],0.8 µg/g
same,Drug uptake,[25],12.7 µg/g
same,Drug uptake,[26],3.39 µg/g
same,Drug uptake,[27],8.78 µg/g
same,Drug uptake,[28],12.4 µg/g
same,Drug uptake,[29],21.9 µg/g
same,Drug uptake,[30],0.39 µg
same,Drug uptake,[31],25.1 µg/g
same,Drug uptake,[32],8.64 µg/g
same,Drug uptake,[33],18.7 µg/g
same,Drug uptake,[34],8.42 µg/g
same,Drug uptake,[35],6.56 µg
same,Drug uptake,[36],0.67 µg
same,Drug uptake,[37],13.1 µg/g
